The source of these data is patent publication US20150141336A1, “Pancreatic Peptide Compounds and Use” (Novo Nordisk A/S, priority 2012, published 2015).

Numbered stars: 1 amine (or outer) side, 2 acyl side, 3 side chain; on linkers, the order of the positions; unused ones are H or OH. Side chains are listed from the residue outwards. Peptide text beside a SMILES is read from it. * marks the point of attachment. C18 diacid = O=C(O)CCCCCCCCCCCCCCCCC(=O)*; γGlu = O=C(O)[C@H](CCC(=O)[*:2])N[*:1]; AEEA = NCCOCCOCC(=O)O

The series is described as follows: Assay (II) PK i.v. minipig, in vivo half-life. Also noted: species or system Göttingen mini-pigs. The following applies: male, Göttingen, minipig, iv, Half-life minipig, Assay (II). The method, boiled down:
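Male Göttingen mini-pigs (18–22 kg, n=5) received 6 nmol/kg i.v. via central catheter, formulated in 50 mM K2HPO4, 0.05% tween 80, pH 8.0. EDTA plasma sampled pre-dose to 240 h, quantified by TFC/LC/MS/MS (MRM, range 1-2000 nmol/l); half-life from non-compartmental analysis per animal.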
As to `CC[C@H](C)[C@H](NC(=O)[C@H](Cc1ccc(O)cc1)NC(=O)[C@H](CCCNC(=N)N)NC(=O)[C@H](CCCNC(=N)N)NC(=O)[C@H](CC(C)C)NC(=O)[C@H](CC(=O)O)NC(=O)[C@H](C)NC(=O)[C@H](C)NC(=O)[C@H](Cc1ccc(O)cc1)NC(=O)[C@H](CCC(N)=O)NC(=O)[C@H](C)NC(=O)[C@H](CCSC)NC(=O)[C@H](CCC(N)=O)NC(=O)[C@H](CCCCNC(=O)COCCOCCNC(=O)COCCOCCNC(=O)CC[C@H](NC(=O)CCCCCCCCCCCCCCCCC(=O)O)C(=O)O)NC(=O)[C@@H]1CCCN1C(=O)[C@@H](NC(=O)[C@H](C)NC(=O)[C@H](CC(N)=O)NC(=O)[C@H](CC(=O)O)NC(=O)CNC(=O)[C@@H]1CCCN1C(=O)[C@H](Cc1ccc(O)cc1)NC(=O)[C@@H](NC(=O)[C@@H]1CCCN1C(=O)[C@H](CCC(=O)O)NC(=O)[C@@H](N)CC(C)C)C(C)C)[C@@H](C)O)C(=O)N[C@@H](CC(N)=O)C(=O)N[C@@H](CCSC)C(=O)N[C@@H](CC(C)C)C(=O)N[C@H](C(=O)N[C@@H](CCCNC(=N)N)C(=O)N1CCC[C@H]1C(=O)N[C@@H](CCCNC(=N)N)C(=O)N[C@@H](Cc1ccc(O)cc1)C(N)=O)[C@@H](C)O` [Compound BA] (H-LEPVYPGDNATPK([AEEA-AEEA-γGlu-C18 diacid])QMAQYAADLRRYINMLTRPRY-NH2; N-terminus and C-terminus assumed), the half-life (commonly how long it takes for the measured level to halve) is 24 h.

Regarding `CC[C@H](C)[C@H](NC(=O)[C@H](Cc1ccc(O)cc1)NC(=O)[C@H](CCCNC(=N)N)NC(=O)[C@H](CCCNC(=N)N)NC(=O)[C@H](CC(C)C)NC(=O)[C@H](CC(=O)O)NC(=O)[C@H](C)NC(=O)[C@H](C)NC(=O)[C@H](Cc1ccc(O)cc1)NC(=O)[C@H](CCC(N)=O)NC(=O)[C@H](C)NC(=O)[C@H](CCSC)NC(=O)[C@H](CCCCNC(=O)COCCOCCNC(=O)COCCOCCNC(=O)CC[C@H](NC(=O)CCCCCCCCCCCCCCCCC(=O)O)C(=O)O)NC(=O)[C@H](CCC(=O)O)NC(=O)[C@@H]1CCCN1C(=O)[C@@H](NC(=O)[C@H](C)NC(=O)[C@H](CC(N)=O)NC(=O)[C@H](CC(=O)O)NC(=O)CNC(=O)[C@@H]1CCCN1C(=O)[C@H](Cc1ccc(O)cc1)NC(=O)[C@@H](NC(=O)[C@@H]1CCCN1C(=O)[C@H](CCC(=O)O)NC(=O)[C@@H](N)CC(C)C)C(C)C)[C@@H](C)O)C(=O)N[C@@H](CC(N)=O)C(=O)N[C@@H](CCSC)C(=O)N[C@@H](CC(C)C)C(=O)N[C@H](C(=O)N[C@@H](CCCNC(=N)N)C(=O)N1CCC[C@H]1C(=O)N[C@@H](CCCNC(=N)N)C(=O)N[C@@H](Cc1ccc(O)cc1)C(N)=O)[C@@H](C)O` [Compound AZ] (H-LEPVYPGDNATPEK([AEEA-AEEA-γGlu-C18 diacid])MAQYAADLRRYINMLTRPRY-NH2; N-terminus and C-terminus assumed), the half-life was 20 h.

For `CC[C@H](C)[C@H](NC(=O)[C@H](Cc1ccc(O)cc1)NC(=O)[C@H](CCCNC(=N)N)NC(=O)[C@H](CCCNC(=N)N)NC(=O)[C@H](CC(C)C)NC(=O)[C@H](CC(=O)O)NC(=O)[C@H](C)NC(=O)[C@H](C)NC(=O)[C@H](Cc1ccc(O)cc1)NC(=O)[C@H](CCC(N)=O)NC(=O)[C@H](C)NC(=O)[C@H](CCSC)NC(=O)[C@H](CCC(N)=O)NC(=O)[C@H](CCC(=O)O)NC(=O)[C@@H]1CCCN1C(=O)[C@@H](NC(=O)[C@H](C)NC(=O)[C@H](CC(N)=O)NC(=O)[C@H](CC(=O)O)NC(=O)CNC(=O)[C@@H]1CCCN1C(=O)[C@H](Cc1ccc(O)cc1)NC(=O)[C@H](CCCCNC(=O)COCCOCCNC(=O)COCCOCCNC(=O)CC[C@H](NC(=O)CCCCCCCCCCCCCCCCC(=O)O)C(=O)O)NC(=O)[C@@H]1CCCN1C(=O)[C@H](CCC(=O)O)NC(=O)[C@@H](N)CC(C)C)[C@@H](C)O)C(=O)N[C@@H](CC(N)=O)C(=O)N[C@@H](CCSC)C(=O)N[C@@H](CC(C)C)C(=O)N[C@H](C(=O)N[C@@H](CCCNC(=N)N)C(=O)N1CCC[C@H]1C(=O)N[C@@H](CCCNC(=N)N)C(=O)N[C@@H](Cc1ccc(O)cc1)C(N)=O)[C@@H](C)O` [Compound BJ], the half-life was 29 h.
